Measurements taken from US20140315789A1, “ANTIMICROBIAL PEPTIDES AND USES THEREOF” (NEWSOUTH INNOVATIONS PTY LIMITED, priority 2011, published 2014).

What was measured:
[1] = system: Pseudomonas aeruginosa PA01; assay: Bacterial adhesion to peptide-coated glass surfaces, LIVE/DEAD fluorescence microscopy; type: cell-based; details: P. aeruginosa; for total surface coverage of bacteria / proportion of non-viable cells to total bacteria present / reduction of total surface coverage compared to BLK: peptide attached to maleimide-functionalised glass; for total surface coverage of bacteria: 48 hours incubation, BLK over 21.7%; for proportion of non-viable cells to total bacteria present: BLK 5.8%; for reduction of total surface coverage compared to BLK: versus blank glass
Protocol: (§1) Bacterial strains (Staphylococcus aureus strain 38 or Pseudomonas aeruginosa PA01) were streaked onto Chocolate agar (Oxoid, UK) and incubated overnight at 37° C. A single colony was cultured in 10 ml of tryptone soya broth (TSB) (Oxoid, UK) overnight to log phase at 37° C. Optical density of the resulting culture was adjusted to OD660 of 0.1 (corresponding to 1×10^8 cfu/ml) in TSB media (0.25% w/v glucose). Bacterial numbers were confirmed by a retrospective viable count.
(§2) Glass surfaces were placed in 4 ml of the above culture and incubated at 37° C. with shaking at 60 rpm for 24 hours, then the media was replaced with fresh TSB (4 ml) and incubated for a further 24 hours (total of 48 hours). The samples were then washed with PBS before examination by fluorescent staining
(§3) Glass samples with adherent bacteria prepared as described above were stained with LIVE/DEAD BacLight Bacterial Viability Kit (Molecular Probes, Inc., OR, USA) according to the manufacturer's directions as described by others for the analysis of biofilms at surfaces (Kirov, Barraud). Microscopic observation and image acquisition was performed with Olympus FV1000 Confocal Inverted Microscope. Images obtained from 10 representative areas on each of triplicate samples for each surface were analysed using Image software (Abramoff et al.); Biophotonics International. 2004, 11(7), pp 36-42 and Rasband et al. Image). Bethesda Md., USA, U.S. National Institutes of Health, 1997 ? 2011, available from http://imagej.hih.gov.au/ij/). The image analysis results were measured as the average area of live cells and the average area of dead cells per field of view and are reported as the average percentage coverage. Prior to comparing the groups, equality of variances was tested using Levene's test. Unequal variances were adjusted by transforming the data using square root transformation. Differences between the groups were analysed using linear mixed model ANOVA, which adjusts the correlation due to repeated observations. Post hoc multiple comparisons were done using Dunnett T3 comparison. Statistical significance was set at 5%.
(§4) The adhesion of Pseudomonas aeruginosa and Staphylococcus aureus to the modified surfaces was evaluated using fluorescence microscopy. The images obtained were analysed using ImageJ software (Abramoff et al. J. Biophotonics International. 2004, 11(7), pp 36-42 and Rasband et al. ImageJ. Bethesda Md., USA, U.S. National Institutes of Health, 1997-2011, available from http://imagej.hih.gov.au/ij/). The areas of the surfaces covered by bacteria and the relative proportions of bacteria with intact and damaged membranes for each surface were examined by image analysis and the results are shown in FIG. 4.

[2] = system: Staphylococcus aureus strain 38; assay: as above; type: cell-based; details: S. aureus; for total surface coverage of bacteria / proportion of non-viable bacteria / reduction in total bacteria compared with BLK: peptide attached to maleimide-functionalised glass; for total surface coverage of bacteria: 48 hours incubation, controls more than 16%; for proportion of non-viable bacteria: BLK 2.2%; for reduction in total bacteria compared with BLK: versus blank glass
Protocol: as §1, §2, §3, §4

[3] = surface-attached, fold versus CysC

For “TLISWIKNKRKQRPRVSRRRRRRGGRRRRC [CysC, melimine wherein an extra cysteine residue has been added to the C-terminus]”, the “total surface coverage of bacteria” value [1] was 11.3%, the “proportion of non-viable cells to total bacteria present” value (from here on “proportion of non-viable cells”) [1] was “not statistically different to the controls” and the “reduction of total surface coverage compared to BLK” value (shortened to “reduction of total surface coverage”) [1] was 47.7%. For the same sequence, the “total surface coverage of bacteria” value [2] was 11.8% and the “proportion of non-viable bacteria” value [2] was “not different to the control”.
In the case of “TLISWIKNKRKQCRPRVSRRRRRRGGRRRR [Cys13, melimine wherein an extra cysteine residue has been added to position 13]”, the “total surface coverage of bacteria” value [1] is reported as 7.1%, the “proportion of non-viable cells” value [1] is reported as 30.1% and the “reduction of total surface coverage” value [1] is reported as 67.4%. The “total surface coverage of bacteria” value [2] was 6.3%, the “proportion of non-viable bacteria” value [2] was 9.8% and the “reduction in total bacteria compared with BLK” value [2] was 64.1%.
With “CTLISWIKNKRKQRPRVSRRRRRRGGRRRR [CysN, melimine wherein an extra cysteine residue has been added to the N-terminus]” the “total surface coverage of bacteria” value [1] was 6.6%, the “proportion of non-viable cells” value [1] was 40.6% and the “reduction of total surface coverage” value [1] was 69.4%. For the same sequence, the “effectiveness in reducing total surface coverage relative to CysC” value [1, 3] was “approximately 2 times”, the “nonviable cells (stained red) relative to CysC” value [1, 3] was roughly 3 times and the “total surface coverage of bacteria” value [2] was 3.0%. The “proportion of non-viable bacteria” value [2] was 13.0%, the “reduction in total bacteria compared with BLK” value [2] was 82.7% and the “effectiveness in reducing total surface coverage relative to CysC” value [2, 3] was “approximately 4 times”. For the same sequence, the “nonviable cells (stained red) relative to CysC” value [2, 3] was “approximately 8 times”.
